SMILES strings stand for the structures. Several values for one entry are separate records, joined by “and”; a condition that tells them apart may be missing. Equal entries are not always repeated. Where two headings read alike, the source gives them in different places.

In general, Ki refers to a measure of affinity in units of concentration, obtained from inhibition or displacement.

Test [1] concerns the target T1, bovine factor Xa (Bos taurus, UniProt P00743).
T1 construct: bovine factor Xa, Chromogenix, 2 nkat/mL; purchased Chromogenix
Nature of the test: Protease inhibitory assay, chromogenic substrate S-2222. Conditions: cmpd conc 200 µM; for vinit: replicate values; for Ki: FactorXa, one of two values averaged in Supplementary Data 1, read-out: Ki. Format: biochemical.

Test [2] concerns the target T2, human thrombin (Homo sapiens, UniProt P00734).
T2 construct: human thrombin; purchased Sigma-Aldrich
Nature of the test: Protease inhibitory assay, chromogenic substrate S-2238. Particulars: for vinit: replicate values; for Ki: Thrombin, one of two values averaged in Supplementary Data 1, read-out: Ki. Type of test: biochemical.

Setting [3] is: FactorXa primary screening, substrate 100 µM.
Where [4] appears, read: Thrombin primary screening, substrate 40 µM, cmpd conc 500 µM.
The mark [5] stands for this setting: FactorXa Ki determination, substrate 100 µM.
The mark [6] stands for this setting: FactorXa Ki determination, substrate 200 µM.
The mark [7] stands for this setting: Thrombin Ki determination, substrate 20 µM, cmpd conc 200 µM.
[8] abbreviates: Thrombin Ki determination, substrate 40 µM, cmpd conc 200 µM.
[9] abbreviates: substrate 20 µM, cmpd conc 200 µM.
Where [10] appears, read: substrate 40 µM, cmpd conc 200 µM.

T1 sequence (P00743 234-492 limits assumed): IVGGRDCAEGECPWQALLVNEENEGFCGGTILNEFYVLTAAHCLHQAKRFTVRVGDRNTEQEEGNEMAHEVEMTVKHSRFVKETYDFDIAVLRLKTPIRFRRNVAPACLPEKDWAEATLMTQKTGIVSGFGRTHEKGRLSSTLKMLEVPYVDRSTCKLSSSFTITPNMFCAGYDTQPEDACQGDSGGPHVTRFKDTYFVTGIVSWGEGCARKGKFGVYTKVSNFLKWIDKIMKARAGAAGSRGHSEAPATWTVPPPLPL
T1 sequence (P00743 41-180 partner limits assumed): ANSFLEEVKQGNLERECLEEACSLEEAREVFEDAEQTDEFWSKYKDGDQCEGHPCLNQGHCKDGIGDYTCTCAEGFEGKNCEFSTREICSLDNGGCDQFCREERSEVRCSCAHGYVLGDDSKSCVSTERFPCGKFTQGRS

As for `Brc1ccc(-c2ccon2)cc1` [SX-A9], in test [1] (setting [3]), the “V0 / Vi” value worked out at 0.98; the vinit is 19.055 and 17.6. In test [2] (setting [4]), the “V0 / Vi” value is 0.98; the vinit is 30.873 and 32.327.
Consider `c1ccc2oc(C3CCCNC3)nc2c1` (stereo not drawn) [SX-D10], for which, in test [1] (setting [3]), the “V0 / Vi” value turned out to be 0.95; the vinit was 15 and 15.3. Besides, in test [2] (setting [4]), the “V0 / Vi” value is listed as 0.92; the vinit is 35.091 and 33.236.
Turning to `CC(=O)c1ccc2c(c1)CNCC2` [SX-C8], in test [1] (setting [3]), the “V0 / Vi” value is 0.98; the vinit is 18.691 and 17.818. For the same compound, in test [2] (setting [4]), the “V0 / Vi” value is listed as 0.98; the vinit was 32.218 and 31.018.
Turning to `Nc1ccc(-c2ccccc2)cc1C(=O)O` [SX-G9], the results for the “V0 / Vi” value in test [1] (setting [3]) and in test [2] (setting [4]) were 1.04 and 1.08, respectively. The vinit in test [1] (setting [3]) was 16.3; in test [2] (setting [4]), 29.309 and 31.745.
Regarding `NC(c1ccccc1)c1ccccc1` [SX-C3], in test [1] (setting [3]), the “V0 / Vi” value amounted to 0.95; the vinit is 19.527 and 17.564. Moreover, in test [2] (setting [4]), the “V0 / Vi” value was 1.07; the vinit is 27.818 and 27.309.
For `O=C1NC(=O)C2(CCc3ccccc32)N1` (stereo not drawn) [SX-B7], in test [1] (setting [3]), the “V0 / Vi” value turned out to be 0.98; the vinit is 19.273 and 17.122. In test [2] (setting [4]), the “V0 / Vi” value was 0.98; the vinit was 31.782 and 31.345.
In the case of `c1ccc(Nc2nncs2)cc1` [SX-D8], the “V0 / Vi” value was determined as 1.15 in test [1] (setting [5]), 1.14 in test [1] (setting [6]), 1.17 in test [1] (setting [3]) and 0.99 in test [2] (setting [4]). Also, the “vinit, avrg.” value in test [1] (setting [5]) was 14.126. For the same compound, the vinit was 15.1223 and 13.77 and 13.49 in test [1] (setting [5]); 30.094 and 32.958 and 33.09 in test [1] (setting [6]); 15.418 and 15.164 in test [1] (setting [3]); 30.873 and 31.527 in test [2] (setting [4]). For the same compound, the values for the Ki in test [1] (substrate 100 µM) and in test [1] (substrate 200 µM) were 814 µM and 652 µM, respectively.
Regarding `N#CC1CCS(=O)(=O)C1` (stereo not drawn) [SX-F2], in test [1] (setting [3]), the “V0 / Vi” value stood at 0.97; the vinit was 17.745 and 18.291. In test [2] (setting [4]), the “V0 / Vi” value was 0.97; the vinit was 30.436 and 30.255.
With `O=C(O)C1CCCN(C(=O)N2CCCC2)C1` (stereo not drawn) [SX-G6], in test [1] (setting [3]), the “V0 / Vi” value was 1.09; the vinit is 16.1 and 15. Further, in test [2] (setting [4]), the “V0 / Vi” value is 1.18; the vinit was 27.345 and 28.364.
Take `CS(=O)(=O)c1ccc(OC(F)(F)F)cc1` [SX-B8]: the “V0 / Vi” value was found to be 0.94 in test [1] (setting [3]) and 0.99 in test [2] (setting [4]). Besides, the vinit in test [1] (setting [3]) is 20.109 and 18.073; in test [2] (setting [4]), 31.709 and 31.2.
With `Cc1cc(N)no1` [SX-B11], in test [1] (setting [3]), the “V0 / Vi” value is 0.97; the vinit is 13.08 and 16.72. For the same compound, in test [2] (setting [4]), the “V0 / Vi” value was 1.00; the vinit was 30.982 and 31.927.
Turning to `O=C(O)C1CCN(c2ncccn2)CC1` [SX-E9], the “V0 / Vi” value in test [1] (setting [3]) is 1.08; in test [2] (setting [7]), 1.35; in test [2] (setting [8]), 1.14; in test [2] (setting [4]), 1.21. In addition, the vinit in test [1] (setting [3]) is 16.073 and 17.018; in test [2] (setting [7]), 19.72 and 18.944 and 20.14; in test [2] (setting [8]), 27.932 and 30.186 and 30.77; in test [2] (setting [4]), 27.382 and 24. For the same compound, the “vinit, avrg.” value in test [2] (setting [7]) worked out at 19.600; in test [2] (setting [8]), 29.629. In addition, the Ki in test [2] (setting [9]) turned out to be 65 µM; in test [2] (setting [10]), 87 µM.
Regarding `Cc1ccc(C)n1Cc1ccccc1Cl` [SX-D6], in test [1] (setting [3]), the “V0 / Vi” value worked out at 0.98; the vinit is 17.786 and 17.286. In test [2] (setting [4]), the “V0 / Vi” value is 1.24; the vinit is 26.364 and 21.673.
For `O=C1CC(CSc2ccc(Cl)cc2)=NN1` [SX-H8], in test [1] (setting [3]), the “V0 / Vi” value amounted to 0.99; the vinit is 15.686 and 16.6. For the same compound, in test [2] (setting [4]), the “V0 / Vi” value came out at 0.97; the vinit is 33.5 and 31.286.
For `Oc1nnc(-c2ccccc2)o1` [SX-F7], in test [1] (setting [3]), the “V0 / Vi” value turned out to be 1.07; the vinit was 16.182 and 17.345. In addition, in test [2] (setting [4]), the “V0 / Vi” value was 0.99; the vinit is 31.527 and 31.273.
In the case of `CS(=O)(=O)Nc1ccc(C(=O)O)cc1` [SX-G12], in test [1] (setting [3]), the “V0 / Vi” value was 1.01; the vinit was 17.2 and 16.5. Also, in test [2] (setting [4]), the “V0 / Vi” value was 1.06; the vinit was 31.418 and 30.764.
Consider `CC1C(=O)NC(=O)N1c1ccc(Cl)cc1` (stereo not drawn) [SX-E3], for which the “V0 / Vi” value in test [1] (setting [3]) is 1.01; in test [2] (setting [4]) it was 0.98. In addition, the vinit in test [1] (setting [3]) was 17.673 and 16.982; in test [2] (setting [4]), 29.964 and 29.673.
`O=C(CN1CCCC1)c1ccccc1Cl` [SX-G10]: in test [1] (setting [3]), the “V0 / Vi” value is 1.00; the vinit was 17.7 and 16.3. Also, in test [2] (setting [4]), the “V0 / Vi” value is 0.99; the vinit is 33.345 and 33.273.
Regarding `CN(C)c1cc(CN)ccn1` [SX-G3], in test [1] (setting [3]), the “V0 / Vi” value is 0.93; the vinit is 17.9 and 18.5. For the same compound, in test [2] (setting [4]), the “V0 / Vi” value came to 0.92; the vinit was 35.564 and 35.891.
Consider `Cc1ccc(-c2ccc(O)cc2)cc1` [SX-D7], for which, in test [1] (setting [3]), the “V0 / Vi” value was 1.15; the vinit was 14.909 and 16.073. Besides, in test [2] (setting [4]), the “V0 / Vi” value was found to be 1.05; the vinit is 30.8 and 28.545.
With `Cc1ccc(CCNc2ccccc2)cn1` [SX-H11], in test [1] (setting [3]), the “V0 / Vi” value is on record as 0.99; the vinit is 15.4 and 17. In test [2] (setting [4]), the “V0 / Vi” value is 1.00; the vinit is 31.714 and 31.42.
Regarding `CN1CC(=O)NC1=O` [SX-B10], in test [1] (setting [3]), the “V0 / Vi” value is 0.98; the vinit is 14 and 15.6. Also, in test [2] (setting [4]), the “V0 / Vi” value stood at 0.98; the vinit is 32.909 and 30.982.
For `COc1ccccc1N1CCNCC1` [SX-A10], the “V0 / Vi” value is on record as 0.98 in test [1] (setting [3]) and 0.96 in test [2] (setting [4]). The vinit was 14.286 and 15.286 in test [1] (setting [3]); 33.236 and 32.218 in test [2] (setting [4]).
Turning to `CC(=O)c1sc(-c2ccc(O)cc2)nc1C` [SX-E1], the “V0 / Vi” value in test [1] (setting [5]) was 1.16; in test [1] (setting [6]) it was 1.13; in test [1] (setting [3]) it was 1.17; in test [2] (setting [7]), 1.09; in test [2] (setting [8]), 1.06; in test [2] (setting [4]), 1.10. In addition, the “vinit, avrg.” value turned out to be 14.048 in test [1] (setting [5]), 24.296 in test [2] (setting [7]) and 31.885 in test [2] (setting [8]). Further, the vinit in test [1] (setting [5]) was 13.804 and 13.836 and 14.50; in test [1] (setting [6]), 32.734 and 31.114 and 32.88; in test [1] (setting [3]) it was 15.455 and 14.545; in test [2] (setting [7]), 24.026 and 25.131 and 23.73; in test [2] (setting [8]) it was 32.585 and 30.957 and 32.11; in test [2] (setting [4]), 25.309 and 28. Moreover, the Ki stood at 781 µM in test [1] (substrate 100 µM), 687 µM in test [1] (substrate 200 µM), 251 µM in test [2] (setting [9]) and 207 µM in test [2] (setting [10]).
As for `Fc1ccc(CC2CCCNC2)cc1` (stereo not drawn) [SX-C1], in test [1] (setting [3]), the “V0 / Vi” value came out at 0.94; the vinit is 18.218 and 18.909. In test [2] (setting [4]), the “V0 / Vi” value came out at 0.97; the vinit was 29.564 and 30.8.
With `FC1(F)CNCC(F)(F)O1` [SX-H3], in test [1] (setting [3]), the “V0 / Vi” value is 0.94; the vinit was 18.2 and 17.8. In test [2] (setting [4]), the “V0 / Vi” value is listed as 0.99; the vinit is 34.218 and 32.291.
As for `Oc1cnc(-c2ccccc2)nc1` [SX-F11], in test [1] (setting [3]), the “V0 / Vi” value was determined as 1.00; the vinit was 14.672 and 14.2. In addition, in test [2] (setting [4]), the “V0 / Vi” value is recorded as 1.02; the vinit was 30.836 and 30.8.
In the case of `Cn1nc(C(F)(F)F)cc1O` [SX-H6], in test [1] (setting [3]), the “V0 / Vi” value is 1.13; the vinit is 14.3 and 15.9. Also, in test [2] (setting [4]), the “V0 / Vi” value stood at 1.11; the vinit is 29.345 and 30.109.
On to `CCc1ccc(NC2=NCCCS2)cc1` [SX-D2], for which, in test [1] (setting [3]), the “V0 / Vi” value was 1.02; the vinit is 16.873 and 17.6. In test [2] (setting [4]), the “V0 / Vi” value turned out to be 0.96; the vinit is 30.909 and 30.582.
Take `O=C1CSC(Nc2ccc(F)cc2)=N1` [SX-H10]: in test [1] (setting [3]), the “V0 / Vi” value was determined as 1.14; the vinit was 14.6 and 13.3. In test [2] (setting [4]), the “V0 / Vi” value is on record as 1.13; the vinit was 26.786 and 28.857.
On to `O=C1CCN(c2ccncc2)CC1` [SX-G7], for which, in test [1] (setting [3]), the “V0 / Vi” value is reported as 1.03; the vinit is 17.5 and 15.6. In test [2] (setting [4]), the “V0 / Vi” value came to 0.90; the vinit was 36.109 and 37.055.
On to `O=C1CCC(=O)N(c2ccccc2)N1` [SX-H7], for which, in test [1] (setting [3]), the “V0 / Vi” value worked out at 0.97 and the vinit is on record as 16.4. For the same compound, in test [2] (setting [4]), the “V0 / Vi” value worked out at 1.06; the vinit was 30 and 29.357.
As for `Nc1ccc(SC(F)F)cc1` [SX-D1], in test [1] (setting [3]), the “V0 / Vi” value came to 0.99; the vinit was 18.218 and 17.091. In addition, in test [2] (setting [4]), the “V0 / Vi” value was 1.00; the vinit was 28.182 and 30.8.

For the origin of these results see article PMC8159961, “Exploring protein hotspots by optimized fragment pharmacophores” (Nature Communications, 2021).
